Experimental findings from patent publication US20130296425A1, “PROPHYLACTIC OR THERAPEUTIC AGENT FOR A PERIPHERAL NERVE DISORDER INDUCED BY ANTI-CANCER AGENTS” (NAGOYA INDUSTRIAL SCIENCE RESEARCH INSTITUTE, priority 2011, published 2013) are described below.

Test [1] has as its system paclitaxel-induced peripheral nerve disorder rats. The experiment in a line: Single intraperitoneal administration, hyperalgesia induced by paclitaxel (von Frey test). The settings on record: Rattus norvegicus, ip, single i.p. dose 0.3 mg/kg, higher of the values after 1 hour and 5 hours, read-out: Recovery rate of 50% reaction threshold value (%). It is filed as in vivo. Here is the method:
Male SD rats in six weeks age (one group comprised six rats) were used as experimental animals and the paclitaxel-induced peripheral nerve disorder rats were prepared in the same manner as in the above 1.[1](2). The test drug was administered intraperitoneally in a single dose so as to make it 0.3 mg/kg in any of the cases during the period of 18 to 25 days or 20 to 27 days after initiation of administration of paclitaxel.
A von Frey test was conducted in the same manner as in the above 1.[1](4) using the rats mentioned in the above (1) and each 50% reaction threshold value was measured. With regard to the higher 50% reaction threshold value between the 50% reaction threshold values after 1 hour and 5 hours from administration of a test drug, a recovery rate (%) of the 50% reaction threshold value was calculated.
Recovery rate (%) of 50% reaction threshold value={[(50% reaction threshold value after 1 hour or 5 hours from administration of test drug)−(50% reaction threshold value before administration of test drug)]÷[(Normal threshold value)−(50% reaction threshold value before administration of test drug)]}×100

The test system is the same in test [2]. The experiment in a line: Oral administration (suspension or α-CD inclusion complex), hyperalgesia by paclitaxel (von Frey test). The following applies: for 50% reaction threshold value, after 5 hours from administration / AUC of 50% reaction threshold value over time, measured value: single dose; for 50% reaction threshold value, before administration: baseline. It is filed as in vivo, rat. Here is the method: A suspension ([…]) 5 mL of the compound 4 was mixed with a 1% α-CD aqueous solution followed by stirring overnight to prepare an α-CD inclusion complex of the compound 4.
With regard to male SD rats of six weeks age used as the experimental animals, the rats were organized into the following six groups each comprising 6 rats. • Oral administration group with 0.3 mg/kg of the test drug suspension • Oral administration group with 3 mg/kg of the test drug suspension • Oral administration group with an α-CD inclusion complex containing 0.3 mg/kg of the test drug • Oral administration group with an α-CD inclusion complex containing 3 mg/kg of the test drug • α-CD oral administration group • Intraperitoneal administration group with 0.3 mg/kg of the test drug
Paclitaxel-induced peripheral nerve disorder rats were prepared in the same manner as in the above 1.[1](2). The compound 4 was used as a test drug and, after 39 days from the initiation of the administration of paclitaxel, it was orally administered in a single dose where the dose calculated as a test drug became 0.3 mg/kg or 3 mg/kg to oral administration groups with the test drug suspension or to oral administration groups with an α-CD inclusion complex containing the test drug while, to an intraperitoneal administration group with the test drug, it was intraperitoneally administered in a single dose of 0.3 mg/kg. Further, to an α-CD Oral administration group, an α-CD solution was orally administered in a single dose of 15 mg/kg.
A von Frey test was conducted in the same manner as in the above 1.[1](4) using the rats mentioned in the above (2) and 50% reaction threshold values in each group were measured before initiating the administration of a test drug and after 1, 5 and 24 hours. Further, AUC (area of the part surrounded by a curve and an abscissa axis (a time axis) in a graph showing the 50% reaction threshold value over time from administration of the test drug) was calculated and the relative ratio of each group was calculated where the AUC of the intraperitoneal administration group with 0.3 mg/kg of the test drug was adopted as 100.

Where [3] appears, read: oral 0.3 mg/kg, test drug suspension.
[4] abbreviates: oral 3 mg/kg, test drug suspension.

As to `CCCCCCC/C=C/C(=O)OCC` [Compound 4, Trans-2-decenoic acid ethyl ester], the inhibition in vivo at 0.3 mg/kg in test [1] is 48.5%. Moreover, the “50% reaction threshold value, after 5 hours from administration” value came to 8.57 in test [2] (intraperitoneal 0.3 mg/kg), 6.00 in test [2] (setting [3]) and 8.66 in test [2] (setting [4]). The “AUC of 50% reaction threshold value over time, measured value” in test [2] (intraperitoneal 0.3 mg/kg) came to 74.59; in test [2] (setting [3]), 31.83; in test [2] (setting [4]), 54.99. Further, the “50% reaction threshold value, before administration” value was 4.58 in test [2] (intraperitoneal 0.3 mg/kg), 4.57 in test [2] (setting [3]) and 4.57 in test [2] (setting [4]). Further, the AUC relative ratio in test [2] (intraperitoneal 0.3 mg/kg, this group adopted as 100) stood at 100; in test [2] (oral 0.3 mg/kg, test drug suspension, AUC of i.p. 0.3 mg/kg group = 100), 43; in test [2] (oral 3 mg/kg, test drug suspension, AUC of i.p. 0.3 mg/kg group = 100) it was 74.
